Source: patent publication US6277847A, “Herbicidal isoindolinonyl-and 3,4-dihydroisoquinolonyl-substituted heterocycles” (FMC Corporation, priority 2000, dated 2001)

Columns and labels:
Format in all cases: in vivo
[1] = system: green foxtail (Setaria viridis); assay: pre-emergence herbicidal activity, green foxtail; settings: 1 kg/Ha, about fourteen days, read-out: pre-emergence herbicidal activity (% control) SETVI
How it was run: (§1)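 Seeds sown in flats of soil mix were sprayed pre-emergence with test compound in water/acetone at 1 kg/Ha. Flats were held about fourteen days beside untreated controls, then phytotoxicity was scored as percent control (0 = no effect, 100 = complete control).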

[2] = system: blackgrass (Aloepecurus myosuroides); assay: pre-emergence herbicidal activity, blackgrass; settings: Alopecurus myosuroides, 1 kg/Ha, about fourteen days, read-out: pre-emergence herbicidal activity (% control) ALOMY
How it was run: as §1

[3] = system: velvetleaf (Abutilon theophrasti); assay: post-emergence herbicidal activity, velvetleaf; settings: 1 Kg/Ha, about fourteen days, read-out: post-emergence herbicidal activity (% control) ABUTH
How it was run: (§2)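 Seedlings were grown in soil flats to a suitable stage, then sprayed with test compound in water/acetone at 1 Kg/Ha. Treated plants were kept alongside untreated controls for about fourteen days and then scored for phytotoxicity as percent control, 0 being no effect and 100 complete control.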

[4] = system: soybean (Glycine max -- var. Winchester); assay: pre-emergence herbicidal activity, soybean; settings: 1 kg/Ha, about fourteen days, read-out: pre-emergence herbicidal activity (% control) SOY
How it was run: as §1

[5] = system: common chickweed (Stellaria media); assay: pre-emergence herbicidal activity, chickweed; settings: 1 kg/Ha, about fourteen days, read-out: pre-emergence herbicidal activity (% control) STEME
How it was run: as §1

[6] = system: wheat (Triticum aestivum var. Lew); assay: post-emergence herbicidal activity, wheat; settings: 1 Kg/Ha, about fourteen days, read-out: post-emergence herbicidal activity (% control) WHT
How it was run: as §2

[7] = system: common cocklebur (Xanthium strumarium L.); assay: post-emergence herbicidal activity, cocklebur; settings: 1 Kg/Ha, about fourteen days, read-out: post-emergence herbicidal activity (% control) XANPE
How it was run: as §2

[8] = system: field corn (Zea mays var. Pioneer 3732); assay: post-emergence herbicidal activity, corn; settings: 1 Kg/Ha, about fourteen days, read-out: post-emergence herbicidal activity (% control) CRN
How it was run: as §2

[9] = system: morningglory (Ipomea lacunosa or Ipomea hederacea); assay: post-emergence herbicidal activity, morningglory; settings: Ipomoea, 1 Kg/Ha, about fourteen days, read-out: post-emergence herbicidal activity (% control) IPOSS
How it was run: as §2

[10] = system: common chickweed (Stellaria media); assay: post-emergence herbicidal activity, chickweed; settings: 1 Kg/Ha, about fourteen days, read-out: post-emergence herbicidal activity (% control) STEME
How it was run: as §2

[11] = system: soybean (Glycine max -- var. Winchester); assay: post-emergence herbicidal activity, soybean; settings: 1 Kg/Ha, about fourteen days, read-out: post-emergence herbicidal activity (% control) SOY
How it was run: as §2

[12] = system: green foxtail (Setaria viridis); assay: post-emergence herbicidal activity, green foxtail; settings: 1 Kg/Ha, about fourteen days, read-out: post-emergence herbicidal activity (% control) SETVI
How it was run: as §2

[13] = system: velvetleaf (Abutilon theophrasti); assay: pre-emergence herbicidal activity, velvetleaf; settings: 1 kg/Ha, about fourteen days, read-out: pre-emergence herbicidal activity (% control) ABUTH
How it was run: as §1

[14] = system: morningglory (Ipomea lacunosa or Ipomea hederacea); assay: pre-emergence herbicidal activity, morningglory; settings: Ipomoea, 1 kg/Ha, about fourteen days, read-out: pre-emergence herbicidal activity (% control) IPOSS
How it was run: as §1

[15] = system: common cocklebur (Xanthium strumarium L.); assay: pre-emergence herbicidal activity, cocklebur; settings: 1 kg/Ha, about fourteen days, read-out: pre-emergence herbicidal activity (% control) XANPE
How it was run: as §1

[16] = system: blackgrass (Aloepecurus myosuroides); assay: post-emergence herbicidal activity, blackgrass; settings: Alopecurus myosuroides, 1 Kg/Ha, about fourteen days, read-out: post-emergence herbicidal activity (% control) ALOMY
Protocol: This example sets forth the methods of herbicidal testing conducted on the specific compounds set forth below. Specifically, the compounds referenced below were tested for pre- and post-emergence herbicidal activity using a variety of crops and weeds. The test plants include, but are not limited to, soybean (Glycine max -- var. Winchester), field corn (Zea mays var. Pioneer 3732), wheat (Triticum aestivum var. Lew), morningglory (Ipomea lacunosa or Ipomea hederacea), velvetleaf (Abutilon theophrasti), green foxtail (Setaria viridis), Johnsongrass (Sorghum halepense), blackgrass (Aloepecurus myosuroides), common chickweed (Stellaria media), and common cocklebur (Xanthium strumarium L.).
In the post-emergence test, seeds of the plant species named above were planted in flats containing the appropriate soil mixture where they were maintained to allow the seeds to germinate. When the plants in these flats reached the proper stage of growth, flats for the pre-emergence tests were planted in a like manner. The flats containing the post-emergence and pre-emergence test plant species were then sprayed with an appropriately concentrated water/acetone solution of test compound. Once treated the flats were maintained, along with untreated controls, for about fourteen days. All treated plants were then examined for phytotoxicity, which was expressed as percent control where 0 is no effect and 100 is complete control. Effective rates of application for the compounds of the present invention range from 0.001 to 3 kg/ha, more likely from […] to 1 Kg/ha.
Herbicidal activity data at selected application rates are in Tables 4 and 5. The test compounds are identified by numbers correspond to those in Table 1.
SOY is soybean, WHT is wheat, CRN is corn, ABUTH is velvetleaf, IPOSS is
morningglory, STEME is chickweed, XANPE is cocklebur, ALOMY is blackgrass,
Rate of application of test compound is 1 Kg/Ha. The definitions as shown under Table 4 apply to Table 5.

[17] = system: field corn (Zea mays var. Pioneer 3732); assay: pre-emergence herbicidal activity, corn; settings: 1 kg/Ha, about fourteen days, read-out: pre-emergence herbicidal activity (% control) CRN
How it was run: as §1

[18] = system: wheat (Triticum aestivum var. Lew); assay: pre-emergence herbicidal activity, wheat; settings: 1 kg/Ha, about fourteen days, read-out: pre-emergence herbicidal activity (% control) WHT
How it was run: as §1

SMILES | activity at 1000 g/ha [1] [%] | activity at 1000 g/ha [2] [%] | activity at 1000 g/ha [3] [%] | activity at 1000 g/ha [4] [%] | activity at 1000 g/ha [5] [%] | activity at 1000 g/ha [6] [%] | activity at 1000 g/ha [7] [%] | activity at 1000 g/ha [8] [%] | activity at 1000 g/ha [9] [%] | activity at 1000 g/ha [10] [%] | activity at 1000 g/ha [11] [%] | activity at 1000 g/ha [12] [%] | activity at 1000 g/ha [13] [%] | activity at 1000 g/ha [14] [%] | activity at 1000 g/ha [15] [%] | activity at 1000 g/ha [16] [%] | activity at 1000 g/ha [17] [%] | activity at 1000 g/ha [18] [%]
CCCn1c(C(F)(F)F)cc(=O)n(-c2ccc(Cl)c3c2CN(C(C)C)C3=O)c1=O [Compound 72] | 75 | 30 | 20 | 20 | 65 | 0 | 10 | 60 | 10 | 10 | 60 | 50 | 40 | 25 | 40 | 10 | 70 | 30
CC(C)N1Cc2c(-n3c(=O)cc(C(F)(F)F)n(Cc4ccccc4)c3=O)ccc(Cl)c2C1=O [Compound 73] | 100 | 70 | 100 | 95 | 100 | 50 | 75 | 75 | 80 | 100 | 90 | 60 | 100 | 40 | 70 | 70 | 90 | 69
CCOC(=O)Cn1c(C(F)(F)F)cc(=O)n(-c2ccc(Cl)c3c2CN(C(C)C)C3=O)c1=O [Compound 74] | 5 | 10 | 20 | 5 | 10 | 10 | 20 | 30 | 30 | 20 | 40 | 10 | 5 | 20 | 30 | 30 | 0 | 0
C#CCn1c(C(F)(F)F)cc(=O)n(-c2ccc(Cl)c3c2CN(C(C)C)C3=O)c1=O [Compound 75] | 100 | 95 | 100 | 100 | 100 | 70 | 85 | 50 | 50 | 100 | 60 | 45 | 100 | 100 | 95 | 100 | 95 | 100
Cn1c(C(F)(F)F)cc(=O)n(-c2ccc(Cl)c3c2CN(C2CCCC2)C3=O)c1=O [Compound 76] | 100 | 90 | 100 | 100 | 100 | 100 | 100 | 100 | 100 | 100 | 95 | 100 | 100 | 100 | 100 | 100 | 95 | 80
Cn1c(C(F)(F)F)cc(=O)n(-c2ccc(Cl)c3c2CN(C2CCCCC2)C3=O)c1=O [Compound 77] | 100 | 95 | 100 | 100 | 100 | 80 | 100 | 100 | 100 | 100 | 95 | 100 | 100 | 100 | 100 | 100 | 90 | 80
Cn1c(C(F)(F)F)cc(=O)n(-c2ccc(Cl)c3c2CN(CCF)C3=O)c1=O [Compound 78] | 100 | 100 | 100 | 100 | 100 | 100 | 100 | 100 | 100 | 100 | 100 | 100 | 100 | 100 | 100 | 100 | 100 | 100
C=CCn1c(C(F)(F)F)cc(=O)n(-c2ccc(Cl)c3c2CN(C(C)C)C3=O)c1=O [Compound 80] | 95 | 80 | 95 | 70 | 100 | 50 | 40 | 75 | 30 | 100 | 85 | 80 | 100 | 80 | 40 | 65 | 70 | 80
CC(C)N1Cc2c(-n3c(=O)cc(C(F)(F)F)n(C)c3=O)ccc(Br)c2C1=O [Compound 81] | 100 | 100 | 100 | 100 | 100 | 100 | 100 | 100 | 100 | 100 | 100 | 100 | 100 | 100 | 100 | 100 | 100 | 100
